Data: PubChem BioAssay (NCI)
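Dose response: 5 concentrations. Exposure: 48 h. Format: 96-well plates. Endpoint: linear interpolation; highest concentration if not reached. GI50 marks 50% less growth. TGI marks complete inhibition of growth.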

What was measured:
Assay in all cases: inhibition of tumour cell growth, NCI panel, 48 h
[1] = tested on: ACHN renal
[2] = tested on: HT29 colon
[3] = tested on: T-47D breast
[4] = tested on: OVCAR-5 ovarian
[5] = tested on: K-562 leukemia
[6] = tested on: HOP-92 NSCLC
[7] = tested on: BT-549 breast
[8] = tested on: NCI-H460 lung
[9] = tested on: RPMI-8226 leukemia
[10] = tested on: NCI-H522 lung
[11] = tested on: SF-539 CNS
[12] = tested on: SF-295 CNS
[13] = tested on: NCI-H226 lung
[14] = tested on: SN12C renal
[15] = tested on: HCC-2998 colon
[16] = tested on: SF-268 CNS
[17] = tested on: A498 renal
[18] = tested on: SK-MEL-5 melanoma
[19] = tested on: NCI/ADR-RES ovarian
[20] = tested on: SNB-19 CNS
[21] = tested on: CCRF-CEM leukemia
[22] = tested on: OVCAR-8 ovarian
[23] = tested on: LOX IMVI melanoma
[24] = tested on: UACC-62 melanoma
[25] = tested on: KM12 colon
[26] = tested on: A549 NSCLC
[27] = tested on: TK-10 renal
[28] = tested on: OVCAR-4 ovarian
[29] = tested on: DU-145 prostate
[30] = tested on: COLO 205 colon
[31] = tested on: OVCAR-3 ovarian
[32] = tested on: NCI-H23 lung
[33] = tested on: HCT-15 colon
[34] = tested on: HOP-62 NSCLC
[35] = tested on: MALME-3M melanoma
[36] = tested on: UACC-257 melanoma
[37] = tested on: HCT-116 colon
[38] = tested on: SK-OV-3 ovarian
[39] = tested on: M14 melanoma
[40] = tested on: RXF 393 renal
[41] = tested on: HS 578T breast
[42] = tested on: SNB-75 CNS
[43] = tested on: PC-3 prostate
[44] = tested on: SK-MEL-28 melanoma
[45] = tested on: CAKI-1 renal
[46] = tested on: MCF7 breast
[47] = tested on: MOLT-4 leukemia
[48] = tested on: 786-0 renal
[49] = tested on: HL-60(TB) leukemia
[50] = tested on: MDA-MB-435
[51] = tested on: UO-31 renal
[52] = tested on: EKVX NSCLC
[53] = tested on: IGROV1 ovarian
[54] = tested on: MDA-MB-231 breast
[55] = tested on: SW-620 colon

## O=C1c2ccn(CCCCN(CCO)CCO)c2C(=O)c2c1c(O)c1ccccc1c2O
[1]
  GI50: 21.6 µM
  TGI: 57.7 µM
[2]
  GI50: 3.39 µM
  TGI: > 100 µM
[3]
  GI50: 22.9 µM
  TGI: > 69.6 µM
[4]
  GI50: 19.1 µM
  TGI: 45 µM
[5]
  GI50: 4.41 µM
  TGI: > 100 µM
[6]
  GI50: 17.7 µM
  TGI: 50.8 µM
[7]
  GI50: 20.7 µM
  TGI: 60.9 µM
[8]
  GI50: 7.1 µM
  TGI: 26.1 µM
[9]
  GI50: 5.62 µM
  TGI: 14.8 µM
[10]
  GI50: 9.29 µM
  TGI: > 92.7 µM
[11]
  GI50: 7.88 µM
  TGI: > 80.6 µM
[12]
  GI50: 10.8 µM
  TGI: 42 µM
[13]
  GI50: 64 µM
  TGI: > 100 µM
[14]
  GI50: 6.85 µM
  TGI: 25 µM
[15]
  GI50: 3.55 µM
  TGI: 14.2 µM
[16]
  GI50: 13.7 µM
  TGI: > 63.2 µM
[17]
  GI50: 13.4 µM
  TGI: 39.7 µM
[18]
  GI50: 13.2 µM
  TGI: 78.9 µM
[19]
  GI50: 3.31 µM
  TGI: 12.7 µM
[20]
  GI50: 20.2 µM
  TGI: > 100 µM
[21]
  GI50: 2.07 µM
  TGI: 11.2 µM
[22]
  GI50: 3.61 µM
  TGI: > 100 µM
[23]
  GI50: 1.04 µM
  TGI: 3.64 µM
[24]
  GI50: 1.09 µM
  TGI: 2.77 µM
[25]
  GI50: 1.75 µM
  TGI: 3.59 µM
[26]
  GI50: 2.32 µM
  TGI: 7.33 µM
[27]
  GI50: 6.66 µM
  TGI: 29.6 µM
[28]
  GI50: 31.7 µM
  TGI: > 100 µM
[29]
  GI50: 15.2 µM
  TGI: 34.8 µM
[30]
  GI50: 4.45 µM
  TGI: > 100 µM
[31]
  GI50: 22.2 µM
  TGI: > 100 µM
[32]
  GI50: 1.66 µM
  TGI: 3.02 µM
[33]
  GI50: 0.948 µM
  TGI: 2.14 µM
[34]
  GI50: 16.3 µM
  TGI: > 50.5 µM
[35]
  GI50: 10 µM
  TGI: 35.2 µM
[36]
  GI50: 4.83 µM
  TGI: 24.4 µM
[37]
  GI50: 2.04 µM
[38]
  GI50: 7.74 µM
  TGI: > 43.3 µM
[39]
  GI50: 2.37 µM
[40]
  GI50: 5.19 µM
  TGI: > 58.6 µM
[41]
  GI50: 17.4 µM
  TGI: 59.3 µM
[42]
  GI50: 21.4 µM
  TGI: 65.5 µM
[43]
  GI50: 3.05 µM
  TGI: > 20.7 µM
[44]
  GI50: 5.05 µM
  TGI: > 100 µM
[45]
  GI50: 8.24 µM
  TGI: 21.7 µM
[46]
  GI50: 6.12 µM
  TGI: > 58.1 µM
[47]
  GI50: 2.55 µM
[48]
  GI50: 5.39 µM
  TGI: > 48.4 µM
[49]
  GI50: 3.17 µM
[50]
  GI50: 3.04 µM
[51]
  GI50: 12.5 µM
  TGI: > 100 µM
[52]
  GI50: 23.3 µM
  TGI: > 75.7 µM
[53]
  GI50: 4.97 µM
  TGI: > 100 µM
[54]
  GI50: 1.89 µM
  TGI: 3.97 µM
[55]
  GI50: 3.12 µM
  TGI: 14.7 µM
